Measured values as given in patent US7268152B2, “Glucocorticoid mimetics, methods of making them, pharmaceutical compositions, and uses thereof” (Boehringer Ingelheim Pharmaceuticals, Inc., priority 2002, dated 2007).

Target: T1, human glucocorticoid receptor (GR) complex (Homo sapiens, UniProt P04150)
T1 construct: made in house; host or cells: insect expression system (baculovirus lysate)
T1 sequence (P04150 1-777): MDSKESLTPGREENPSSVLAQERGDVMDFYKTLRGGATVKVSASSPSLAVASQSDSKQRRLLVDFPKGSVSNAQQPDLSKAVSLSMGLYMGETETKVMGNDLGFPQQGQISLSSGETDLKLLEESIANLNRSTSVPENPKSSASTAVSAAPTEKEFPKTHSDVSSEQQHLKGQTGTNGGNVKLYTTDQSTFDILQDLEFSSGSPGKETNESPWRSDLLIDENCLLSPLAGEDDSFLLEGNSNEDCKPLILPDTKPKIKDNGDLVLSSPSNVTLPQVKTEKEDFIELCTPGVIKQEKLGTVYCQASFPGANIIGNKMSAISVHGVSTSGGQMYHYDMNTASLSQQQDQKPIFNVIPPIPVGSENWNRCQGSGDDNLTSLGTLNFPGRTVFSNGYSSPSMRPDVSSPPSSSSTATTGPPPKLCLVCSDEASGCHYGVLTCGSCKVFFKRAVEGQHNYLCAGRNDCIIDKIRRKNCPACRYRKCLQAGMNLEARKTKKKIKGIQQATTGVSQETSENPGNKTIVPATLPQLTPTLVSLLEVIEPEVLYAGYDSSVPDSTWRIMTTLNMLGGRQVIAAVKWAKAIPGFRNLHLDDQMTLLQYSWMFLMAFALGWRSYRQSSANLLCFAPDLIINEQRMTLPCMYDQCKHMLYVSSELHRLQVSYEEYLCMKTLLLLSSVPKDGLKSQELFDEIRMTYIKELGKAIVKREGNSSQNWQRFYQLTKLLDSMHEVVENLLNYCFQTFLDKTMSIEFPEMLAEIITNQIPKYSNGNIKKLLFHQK
Test: Glucocorticoid receptor competitive binding assay (fluorescence polarization)
Details: competition with TAMRA-labeled dexamethasone
Protocol: Compounds of the invention were evaluated for binding to the steroid receptor by a fluorescence polarization competitive binding assay. Detailed descriptions for preparation of recombinant glucocorticoid receptor (GR) complex used in the assay is described in U.S. provisional application No. 60/291,877, filed May 18, 2001, and incorporated herein by reference in its entirety. Preparation of the tetramethyl rhodamine (TAMRA)-labeled dexamethasone probe was accomplished using a standard literature procedure (M. Pons et al., J. Steroid Biochem., 1985, 22, pp. 267-273).
A. Glucocorticoid Receptor Competitive Binding Assay
Step 1. Characterization of the Fluorescent Probe
The wavelengths for maximum excitation and emission of the fluorescent probe should first be measured. An example of such a probe is rhodamine (TAMRA)-labeled dexamethasone.
The affinity of the probe for the steroid receptor was then determined in a titration experiment. The fluorescence polarization value of the probe in assay buffer was measured on an SLM-8100 fluorometer using the excitation and emission maximum values described above. Aliquots of expression vector lysate were added and fluorescence polarization was measured after each addition until no further change in polarization value was observed. Non-linear least squares regression analysis was used to calculate the dissociation constant of the probe from the polarization values obtained for lysate binding to the probe.
Step 2. Screeningfor Inhibitors of Probe Binding
This assay uses fluorescence polarization (FP) to quantitate the ability of test compounds to compete with tetramethyl rhodamine (TAMRA)-labeled dexamethasone for binding to a human glucocorticoid receptor (GR) complex prepared from an insect expression system. The assay buffer was: 10 mM TES, 50 mM KCl, 20 mM Na2MoO4.2H2O, 1.5 mM EDTA, 0.04% w/v CHAPS, 10% v/v glycerol, 1 mM dithiothreitol, pH 7.4. Test compounds were dissolved to 1 mM in neat DMSO and then further diluted to 10×assay concentration in assay buffer supplemented with 10% v/v DMSO. Test compounds were serially diluted at 10×assay concentrations in 10% DMSO-containing buffer in 96-well polypropylene plates. Binding reaction mixtures were prepared in 96-well black Dynex microtiter plates by sequential addition of the following assay components to each well: […] of 10×test compound solution, 85 μL of GR-containing baculovirus lysate diluted 1:170 in assay buffer, and 50 μL of 15 nM TAMRA-labeled dexamethasone. Positive controls were reaction mixtures containing no test compound; negative controls (blanks) were reaction mixtures containing 0.7 μM to 2 μM dexamethasone. The binding reactions were incubated for 1 hour at room temperature and then read for fluorescence polarization in the LJL Analyst set to 550 nm excitation and 580 nm emission, with the Rhodamine 561 dichroic mirror installed. IC50 values were determined by iterative non-linear curve fitting of the FP signal data to a 4-parameter logistic equation.

IC50, ≤ 100 nM:
CC(C)(CC(O)(Cc1cc(C(F)(F)F)cc(Cl)c1F)C(F)(F)F)c1ccccc1 (stereo not shown) [2-(3-Chloro-2-fluoro-5-trifluoromethylbenzyl)-1,1,1-trifluoro-4-methyl-4-phenylpentan-2-ol]
COc1ccc(F)cc1C(C)(C)CC(O)(Cc1cc(Cl)cc(Cl)c1Cl)C(F)(F)F (stereo not shown)
COc1ccc(F)cc1C(C)(C)CC(O)(Cc1ccc(-c2ccccc2)cc1)C(F)(F)F (stereo not shown) [2-Biphenyl-4-ylmethyl-1,1,1-trifluoro-4-(5-fluoro-2-methoxyphenyl)-4-methylpentan-2-ol]
COc1ccc(F)cc1C(C)(C)CC(O)(C(=O)Cc1cc(C)cc(C)c1)C(F)(F)F (stereo not shown) [1-(3,5-Dimethylphenyl)-5-(5-fluoro-2-methoxyphenyl)-3-hydroxy-5-methyl-3-trifluoromethylhexan-2-one]
COc1ccc(F)cc1C(C)(C)CC(O)(Cc1cccc(C#N)c1)C(F)(F)F (stereo not shown) [3-[4-(5-Fluoro-2-methoxyphenyl)-2-hydroxy-4-methyl-2-trifluoromethylpentyl]benzonitrile]
COc1ccc(F)cc1C(C)(C)CC(O)(Cc1cccc(Cl)c1Cl)C(F)(F)F (stereo not shown) [2-(2,3-Dichlorobenzyl)-1,1,1-trifluoro-4-(5-fluoro-2-methoxyphenyl)-4-methylpentan-2-ol]
CC(C)(CC(O)(Cc1cc(C(F)(F)F)cc(Cl)c1F)C(F)(F)F)c1cc([N+](=O)[O-])cc2c1OCC2 (stereo not shown)
CC(C)(CC(O)(Cc1cc(Cl)cc(Cl)c1)C(F)(F)F)c1cc(F)ccc1O (stereo not shown) [2-[3-(3,5-Dichlorobenzyl)-4,4,4-trifluoro-3-hydroxy-1,1-dimethylbutyl]4-fluorophenol]
COc1ccc(F)cc1C(C)(C)CC(O)(C(O)c1cc(C)cc(C)c1)C(F)(F)F (stereo not shown) [1-(3,5-Dimethylphenyl)-4-(5-fluoro-2-methoxyphenyl)-4-methyl-2-trifluoromethylpentane-1,2-diol]
Cc1ccccc1CC(O)(CC(C)(C)c1cc(F)ccc1O)C(F)(F)F (stereo not shown) [4-Fluoro-2-[4,4,4-trifluoro-3-hydroxy-1,1-dimethyl-3-(2-methylbenzyl)butyl]phenol]
COc1ccc(F)cc1C(C)(C)CC(O)(Cc1ccc(C#N)cc1F)C(F)(F)F (stereo not shown) [3-Fluoro-4-[4-(5-fluoro-2-methoxyphenyl)-2-hydroxy-4-methyl-2-trifluoromethylpentyl]benzonitrile]
Cc1cc(C)cc(CC(O)(CC(C)(C)c2cc(F)ccc2O)C(F)(F)F)c1 (stereo not shown) [2-[3-(3,5-Dimethylbenzyl)-4,4,4-trifluoro-3-hydroxy-1,1-dimethylbutyl]4-fluorophenol]
COc1ccc(F)cc1C(C)(C)CC(O)(Cc1cc(F)cc(F)c1F)C(F)(F)F (stereo not shown) [1,1,1-Trifluoro-4-(5-fluoro-2-methoxyphenyl)-4-methyl-2-(2,3,5-trifluorobenzyl)pentan-2-ol]
COc1ccc(F)cc1C(C)(C)CC(O)(Cc1ccc(C=O)cc1)C(F)(F)F (stereo not shown)
COc1ccc(F)cc1C(C)(C)CC(O)(Cc1cc(Cl)cc(C#N)c1)C(F)(F)F (stereo not shown) [3-Chloro-5-[4-(5-fluoro-2-methoxyphenyl)-2-hydroxy-4-methyl-2-trifluoromethylpentyl]benzonitrile]
CC(C)(CC(O)(Cc1ccc(Cl)cc1)C(F)(F)F)c1cc(F)ccc1O (stereo not shown) [2-[3-(4-Chlorobenzyl)-4,4,4-trifluoro-3-hydroxy-1,1-dimethylbutyl]-4-fluorophenol]
CC(C)(CC(O)(Cc1cc(C(F)(F)F)cc(Cl)c1F)C(F)(F)F)c1ccc(Cl)c(Cl)c1 (stereo not shown) [2-(3-Chloro-2-fluoro-5-trifluoromethylbenzyl)-4-(3,4-dichlorophenyl)-1,1,1-trifluoro-4-methylpentan-2-ol]
CC(C)(CC(O)(Cc1ccc(Cl)c(Cl)c1)C(F)(F)F)c1cc(F)ccc1O (stereo not shown) [2-[3-(3,4-Dichlorobenzyl)-4,4,4-trifluoro-3-hydroxy-1,1-dimethylbutyl]-4-fluorophenol]
COc1ccc(F)cc1C(C)(C)CC(O)(Cc1ccc(C(F)(F)F)c(F)c1)C(F)(F)F (stereo not shown)
CC(C)(CC(O)(Cc1ccc(C#N)cc1)C(F)(F)F)c1cc(F)ccc1O (stereo not shown) [4-[4-(5-Fluoro-2-hydroxyphenyl)-2-hydroxy-4-methyl-2-trifluoromethylpentyl]benzonitrile]
Cc1cc(CC(O)(CC(C)(C)c2cc(F)ccc2O)C(F)(F)F)ccc1F (stereo not shown) [4-Fluoro-2-[4,4,4-trifluoro-3-(4-fluoro-3-methylbenzyl)-3-hydroxy-1,1-dimethylbutyl]phenol]
COc1ccc(F)cc1C(C)(C)CC(O)(Cc1cccc(Cl)c1F)C(F)(F)F (stereo not shown) [2-(3-Chloro-2-fluorobenzyl)-1,1,1-trifluoro-4-(5-fluoro-2-methoxyphenyl)-4-methylpentan-2ol]
CC(C)(CC(O)(Cc1ccc(C#N)cc1Cl)C(F)(F)F)c1ccc(O)cc1 (stereo not shown) [3-Chloro-4-[2-hydroxy-4-(4-hydroxyphenyl)-4-methyl-2-trifluoromethylpentyl]benzonitrile]
CC(C)(CC(O)(Cc1ccc(F)c(F)c1)C(F)(F)F)c1cc(F)ccc1O (stereo not shown) [2-[3-(3,4-Difluorobenzyl)-4,4,4-trifluoro-3-hydroxy-1,1-dimethylbutyl]4-fluorophenol]
CC(C)(CC(O)(Cc1cc(C(F)(F)F)cc(Cl)c1F)C(F)(F)F)c1cccc2c1OCC2 (stereo not shown) [2-(3-Chloro-2-fluoro-5-trifluoromethylbenzyl)-4-(2,3-dihydrobenzofuran-7-yl)-1,1,1-trifluoro-4-methylpentan-2-ol]
COc1ccc(F)cc1C(C)(C)CC(O)(Cc1cc(Cl)ccc1Cl)C(F)(F)F (stereo not shown) [2-(2,5-Dichlorobenzyl)-1,1,1-trifluoro-4-(5-fluoro-2-methoxyphenyl)-4-methylpentan-2-ol]
COc1ccc(F)cc1C(C)(C)CC(O)(Cc1ccc(C)c2ccccc12)C(F)(F)F (stereo not shown) [1,1,1-Trifluoro-4-(5-fluoro-2-methoxyphenyl)-4-methyl-2-(4-methylnaphthalen-1-ylmethyl)pentan-2-ol]
Cc1ccc(F)cc1C(C)(C)CC(O)(Cc1ccc(Cl)c(Cl)c1)C(F)(F)F (stereo not shown) [2-(3,4-Dichlorobenzyl)-1,1,1-trifluoro-4-(5-fluoro-2-methylphenyl)-4-methylpentan-2-ol]
CC(C)(CC(O)(Cc1cc(F)cc(C(F)(F)F)c1)C(F)(F)F)c1cc(F)ccc1O (stereo not shown) [4-Fluoro-2-[4,4,4-trifluoro-3-(3-fluoro-5-trifluoromethylbenzyl)-3-hydroxy-1,1-dimethylbutyl]phenol]
COc1ccc(F)cc1C(C)(C)CC(O)(Cc1ccc(Cl)c(C(F)(F)F)c1)C(F)(F)F (stereo not shown) [2-(4-Chloro-3-trifluoromethylbenzyl)-1,1,1-trifluoro-4-(5-fluoro-2-methoxyphenyl)-4-methylpentan-2-ol]
CCOc1ccc(F)cc1C(C)(C)CC(O)(Cc1cc(C(F)(F)F)cc(Cl)c1F)C(F)(F)F (stereo not shown) [2-(3-Chloro-2-fluoro-5-trifluoromethylbenzyl)-4-(2-ethoxy-5-fluorophenyl)-1,1,1-trifluoro-4-methylpentan-2-ol]
